Among the data in BindingDB's records for doi:10.7270/Q2FT8P6X (n/a, 1994) are Ki values, retold here.

The target of this assay is Leukotriene B4 receptor (Cavia porcellus). The assay can be described thus: Negative logarithm of affinity for leukotriene B4 (LTB4) receptor on guinea pig lung membranes.

By Ki is commonly meant the equilibrium dissociation constant of an inhibitor or competing ligand from its target. Read a low Ki as tighter binding.

With `CCc1cc(-c2ccc(N(C)C)cc2)c(O)cc1OCCCCCC(C)(C)c1nn[nH]n1`, the Ki was 63 nM.
The same measure for `CCc1cc(-c2cccc(C(F)(F)F)c2)c(O)cc1OCCCCCC(C)(C)c1nn[nH]n1`: 66 nM.
